Measured values reported in PubChem BioAssay AID328 (DTP/NCI, 2004).
Values joined by “and” are separate entries in the source; they are usually repeats but may differ in a detail not shown here. Equal entries are not always repeated. Toxic doses and inconclusive results are not listed.

Test system: BDF1 mice, P388 leukemia ip, median survival T/C
Assay: NCI In Vivo Anticancer Drug Screen. Data for tumor model P388 Leukemia (intraperitoneal) in B6D2F1 (BDF1) mice
Details: endpoint: median survival time, higher = longer survival
Method in brief: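 Steps: implant the tumour, treat one group with compound and another with vehicle, record survival, then divide treated by control.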

[1] = dose: 100.0 mg/kg/injection, schedule: Q01DX001 (ip), vehicle: Klucel (hydroxypropylcellulose) (HPC)
[2] = dose: 200.0 mg/kg/injection, schedule: Q01DX001 (ip), vehicle: Klucel (hydroxypropylcellulose) (HPC)
[3] = dose: 50.0 mg/kg/injection, schedule: Q01DX009 (ip), vehicle: saline
[4] = dose: 100.0 mg/kg/injection, schedule: Q01DX009 (ip), vehicle: saline
[5] = dose: 200.0 mg/kg/injection, schedule: Q01DX009 (ip), vehicle: saline
[6] = dose: 25.0 mg/kg/injection, schedule: Q01DX009 (ip), vehicle: saline with Tween-80
[7] = dose: 50.0 mg/kg/injection, schedule: Q01DX009 (ip), vehicle: saline with Tween-80
[8] = dose: 100.0 mg/kg/injection, schedule: Q01DX009 (ip), vehicle: saline with Tween-80
[9] = dose: 200.0 mg/kg/injection, schedule: Q01DX009 (ip), vehicle: saline with Tween-80

CC1(C)N=C(N)N=C(N)N1c1ccc(F)cc1
T/C (dose: 50.0 mg/kg/injection, schedule: Q01DX005 (ip), vehicle: Klucel (hydroxypropylcellulose) (HPC)): 117 % of control

CC1CN=C(c2ccc(NC(=O)c3ccc(C(=O)Nc4ccc(C5=NCC(C)N5)cc4)c(N)c3)cc2)N1 (stereo not drawn)
T/C (dose: 6.7 mg/kg/injection, schedule: Q04DX003 (ip), vehicle: saline with Tween-80): 150 % of control | T/C (dose: 10.0 mg/kg/injection, schedule: Q04DX003 (ip), vehicle: saline with Tween-80): 163 % of control | T/C (dose: 15.0 mg/kg/injection, schedule: Q04DX003 (ip), vehicle: saline with Tween-80): 172 % of control and 177 % of control

O=[N+]([O-])c1ccc(N(CCO)CCO)c2c1no[n+]2[O-]
T/C (dose: 7.5 mg/kg/injection, schedule: Q01DX009 (ip), vehicle: saline with Tween-80): 112 % of control | T/C (dose: 15.0 mg/kg/injection, schedule: Q01DX009 (ip), vehicle: saline with Tween-80): 112 % of control | T/C (dose: 30.0 mg/kg/injection, schedule: Q01DX009 (ip), vehicle: saline with Tween-80): 113 % of control | T/C (dose: 32.0 mg/kg/injection, schedule: Q04DX003 (ip), vehicle: saline with Tween-80): 160 % of control | T/C (dose: 64.0 mg/kg/injection, schedule: Q04DX003 (ip), vehicle: saline with Tween-80): 121 % of control

Nc1nc(=S)c2[nH]c(N=Nc3ccc(S(=O)(=O)Nc4nccs4)cc3)nc2[nH]1
T/C (dose: 25.0 mg/kg/injection, schedule: Q01DX001 (ip), vehicle: Klucel (hydroxypropylcellulose) (HPC)): 115 % of control | T/C [1]: 117 % of control | T/C [2]: 120 % of control

BrCC12CCC1(CBr)COC2 (stereo not drawn)
T/C [1]: 107 % of control | T/C [2]: 92 % of control | T/C (dose: 400.0 mg/kg/injection, schedule: Q01DX001 (ip), vehicle: Klucel (hydroxypropylcellulose) (HPC)): 100 % of control

CC1C=CC(=O)O1 (stereo not drawn)
T/C [3]: 105 % of control | T/C [4]: 105 % of control | T/C [5]: 112 % of control | T/C (dose: 400.0 mg/kg/injection, schedule: Q01DX009 (ip), vehicle: saline): 112 % of control

C=C1C(=O)OC2CC(C)C3(O)OC(C)(CC(OC(=O)C(C)C)C12)CC3O (stereo not drawn)
T/C (dose: 13.0 mg/kg/injection, schedule: Q01DX009 (ip), vehicle: saline): 120 % of control | T/C (dose: 25.0 mg/kg/injection, schedule: Q01DX009 (ip), vehicle: saline): 110 % of control | T/C [3]: 95 % of control

CCOc1nc(N)c(C(N)=O)cc1C#N
T/C [6]: 105 % of control | T/C [7]: 110 % of control | T/C (dose: 66.0 mg/kg/injection, schedule: Q01DX009 (ip), vehicle: saline with Tween-80): 92 % of control and 110 % of control | T/C [8]: 150 % of control | T/C (dose: 150.0 mg/kg/injection, schedule: Q01DX009 (ip), vehicle: saline with Tween-80): 88 % of control and 95 % of control

Cn1c(-c2ccccc2)nc2ccccc2c1=O
T/C [7]: 90 % of control | T/C [8]: 97 % of control | T/C [9]: 101 % of control

CO/C(O)=c1/nc2c(n(C)c1=N)=CCCC2
T/C [7]: 100 % of control | T/C [8]: 104 % of control

Cc1ccc2c(c1)N=C(Nc1ccccc1)N=S2(C)=O (stereo not drawn)
T/C [6]: 123 % of control | T/C [8]: 160 % of control

O=C1NN(c2ccccc2)C(=O)/C1=C\c1ccccc1O
T/C (dose: 350.0 mg/kg/injection, schedule: Q01DX009 (ip), vehicle: saline with Tween-80): 97 % of control

ClCCN(CCCl)CCN1c2ccccc2Sc2ccccc21
T/C (dose: 0.79 mg/kg/injection, schedule: Q01DX009 (ip), vehicle: Klucel (hydroxypropylcellulose) (HPC)): 90 % of control | T/C (dose: 1.1 mg/kg/injection, schedule: Q01DX009 (ip), vehicle: Klucel (hydroxypropylcellulose) (HPC)): 90 % of control | T/C (dose: 2.5 mg/kg/injection, schedule: Q01DX009 (ip), vehicle: saline with Tween-80): 150 % of control | T/C (dose: 4.0 mg/kg/injection, schedule: Q01DX009 (ip), vehicle: Klucel (hydroxypropylcellulose) (HPC)): 170 % of control | T/C (dose: 5.0 mg/kg/injection, schedule: Q01DX009 (ip), vehicle: saline with Tween-80): 186 % of control | T/C (dose: 9.37 mg/kg/injection, schedule: Q01DX009 (ip), vehicle: Klucel (hydroxypropylcellulose) (HPC)): 150 % of control | T/C (dose: 10.0 mg/kg/injection, schedule: Q01DX009 (ip), vehicle: saline with Tween-80): 186 % of control | T/C (dose: 12.5 mg/kg/injection, schedule: Q04DX003 (ip), vehicle: Klucel (hydroxypropylcellulose) (HPC)): 160 % of control | T/C (dose: 17.0 mg/kg/injection, schedule: Q04DX003 (ip), vehicle: Klucel (hydroxypropylcellulose) (HPC)): 166 % of control | T/C (dose: 17.5 mg/kg/injection, schedule: Q04DX003 (ip), vehicle: Klucel (hydroxypropylcellulose) (HPC)): 185 % of control | T/C (dose: 20.0 mg/kg/injection, schedule: Q01DX009 (ip), vehicle: saline with Tween-80): 95 % of control | T/C (dose: 23.0 mg/kg/injection, schedule: Q04DX003 (ip), vehicle: Klucel (hydroxypropylcellulose) (HPC)): 109 % of control | T/C (dose: 25.0 mg/kg/injection, schedule: Q04DX003 (ip), vehicle: Klucel (hydroxypropylcellulose) (HPC)): 175 % of control and 200 % of control | T/C (dose: 35.0 mg/kg/injection, schedule: Q04DX003 (ip), vehicle: Klucel (hydroxypropylcellulose) (HPC)): 109 % of control and 210 % of control | T/C (dose: 37.0 mg/kg/injection, schedule: Q04DX003 (ip), vehicle: Klucel (hydroxypropylcellulose) (HPC)): 185 % of control | T/C (dose: 37.5 mg/kg/injection, schedule: Q01DX009 (ip), vehicle: Klucel (hydroxypropylcellulose) (HPC)): 170 % of control | T/C (dose: 50.0 mg/kg/injection, schedule: Q04DX003 (ip), vehicle: Klucel (hydroxypropylcellulose) (HPC)): 109 % of control | T/C (dose: 50.0 mg/kg/injection, schedule: Q04DX003 (ip), vehicle: saline with Tween-80): 104 % of control

Oc1c(Cl)cc(Cl)cc1C1Nc2ccccc2-n2cccc21 (stereo not drawn)
T/C [9]: 88 % of control

COc1ccc(CC2C(=O)NC(C)C(=O)N(C)C3C(=O)N(C)C(Cc4ccc(O)c(c4)Oc4ccc(cc4)C3O)C(=O)NC(C)C(=O)NC(C)C(=O)N2C)cc1 (stereo not drawn) (tested in a mixture with another compound)
T/C (dose: 0.5 mg/kg/injection, schedule: Q01DX009 (ip), vehicle: alcohol): 179 % of control | T/C (dose: 0.5 mg/kg/injection, schedule: Q01DX009 (ip), vehicle: carboxymethylcellulose (CMC)): 207 % of control | T/C (dose: 1.0 mg/kg/injection, schedule: Q01DX009 (ip), vehicle: alcohol): 158 % of control | T/C (dose: 1.0 mg/kg/injection, schedule: Q01DX009 (ip), vehicle: carboxymethylcellulose (CMC)): 182 % of control | T/C (dose: 2.0 mg/kg/injection, schedule: Q01DX009 (ip), vehicle: alcohol): 208 % of control | T/C (dose: 2.0 mg/kg/injection, schedule: Q01DX009 (ip), vehicle: carboxymethylcellulose (CMC)): 207 % of control

O=C1CCCC2C3CC(CN12)C1CC(O)CCN1C3 (stereo not drawn)
T/C (dose: 20.0 mg/kg/injection, schedule: Q01DX010 (ip), vehicle: saline): 90 % of control | T/C (dose: 40.0 mg/kg/injection, schedule: Q01DX010 (ip), vehicle: saline): 100 % of control | T/C (dose: 80.0 mg/kg/injection, schedule: Q01DX010 (ip), vehicle: saline): 100 % of control

C=CC(=O)NC(C)C(=O)O (stereo not drawn)
T/C [3]: 105 % of control | T/C [4]: 105 % of control | T/C [5]: 100 % of control

O=C(O)CCCOc1cc(Cl)c(Cl)cc1Cl
T/C (dose: 50.0 mg/kg/injection, schedule: Q01DX009 (ip), vehicle: gum acacia): 107 % of control | T/C (dose: 50.0 mg/kg/injection, schedule: Q04DX003 (ip), vehicle: gum acacia): 100 % of control | T/C (dose: 100.0 mg/kg/injection, schedule: Q01DX009 (ip), vehicle: gum acacia): 107 % of control | T/C (dose: 100.0 mg/kg/injection, schedule: Q04DX003 (ip), vehicle: gum acacia): 104 % of control | T/C (dose: 200.0 mg/kg/injection, schedule: Q01DX009 (ip), vehicle: gum acacia): 107 % of control | T/C (dose: 200.0 mg/kg/injection, schedule: Q04DX003 (ip), vehicle: gum acacia): 122 % of control

NC=NC(CCC(=O)O)C(=O)O (stereo not drawn)
T/C (dose: 12.5 mg/kg/injection, schedule: Q01DX005 (ip), vehicle: saline): 90 % of control | T/C (dose: 25.0 mg/kg/injection, schedule: Q01DX005 (ip), vehicle: saline): 96 % of control | T/C (dose: 50.0 mg/kg/injection, schedule: Q01DX005 (ip), vehicle: saline): 91 % of control

CNC(=O)C(C)C1C(=O)/C(=C(O)/C=C\C(C)=C\C(C)C2OC3(C)OC(C=CC34CO4)C2C)C(=O)N1C1CCC(O)C(C)O1 (stereo not drawn)
T/C [8]: 109 % of control | T/C [9]: 100 % of control | T/C (dose: 400.0 mg/kg/injection, schedule: Q01DX009 (ip), vehicle: saline with Tween-80): 109 % of control
